Measurements: patent publication US10226044B2, “Agricultural and horticultural composition and method for cultivating plant” (AJINOMOTO CO., INC., priority 2014, dated 2019)

Experiments:
tomato (Momotaro Fight) = assay: Sprinkling of various compounds on tomato (Momotaro): first appearance, coloring and number of fruit; assay type: in vivo
Procedure: Three seeds of tomato (Momotaro Fight) were shown in compost contained in a slit pot, and cultivated in the same manner as described in Example 1, provided that the cultivation was performed in a greenhouse (daytime temperature was 25° C. (6:00 to 20:00), and night temperature was 15° C. (20:00 to 6:00)). The compost and application of fertilizer were the same or performed in the same manner as those described in Example 1. After 3 weeks, one root clump was left, and the others were thinned out. When a flower cluster of the first tier appeared, a support was put up, and after a flower cluster of the second tier appeared, pinching was performed (pinching of terminal bud). After the plants of four root clumps uniformly grew, and flower buds began to appear, water (Con.), 10 mM L-isoleucine aqueous solution (Ile), 10 mM monosodium glutamate aqueous solution (GluNa), 5 mM urea aqueous solution (Urea), or 10 mM phenylalanine aqueous solution (Phe) was sprinkled on the whole plants every two weeks. The sprinkled volume was adjusted in accordance with the growth of the plants, and it was 15 to 30 mL per one root clump. The concentration of urea was 5 mM so that nitrogen amount provided by it was the same as that provided by each of the amino acids. Then, the first appearance of fruit, ripening of fruit, and number of fruit produced were investigated for each root clump.

[1] = system: LOX, JAR1, PI and MYC2 genes; assay: Real-time PCR of jasmonic acid synthesis and response genes in leaves after foliar application; assay type: in vivo, cherry tomato (Suncherry Pure); conditions: 10 mM Ile, 3 hours after foliar application
Procedure: Three hours after the foliar application, leaves of the same part were collected, and RNA was isolated by using SV Total RNA Isolation System™ (Promega) according to the manual of the kit. […] Expression of the 13-lipoxygenase (LOX) gene locating in the upstream of the jasmonic acid biosynthesis pathway, and the gene for synthesis of JA-Ile from JA and Ile (JASMONATE RESISTANT 1 (JAR1)) were analyzed. The expression amounts of the genes are represented as relative expression amounts with respect to that of the actin gene. The results of real-time PCR analysis of the jasmonic acid responding genes, protease inhibitor (PI) and MYC2 genes, performed by using the aforementioned cDNAs as the template are shown in FIG. 13. By the sprinkling of Ile, expression of the PI and MYC2 genes were increased.

[2] = system: VR callus derived from European grape; assay: Anthocyanin content of grape calluses treated with amino acids; assay type: cell-based, Vitis vinifera L.
Procedure: A cell line (VR, management number RPC00003) derived from European grape (Vitis vinifera L.) and stored in the Institute of Physical and Chemical Research, BioResource Center was subcultured on the MS agar medium. The subcultured VR callus was transferred to the MS agar medium containing a 5 mM solution of a different amino acid, and cultured. For the positive control, abscisic acid (ABA), for which coloring-promoting effect is known, was used at 100 μM (Jeong et al., Plant Science, 167:247-252, 2004). On the 5th day after the transfer, the callus was lyophilized and ground, and anthocyanin was extracted from it by using a 1% HCl/MeOH solution. Absorbance of the extract was measured at 530 nm, and the content of anthocyanin was measured by using cyanidine 3-glucoside as a standard substance.
(2) In the same manner as described above, anthocyanin content of grape calluses treated with isoleucine and proline, respectively, were measured.

rice seeds = rice seeds treated with 0.2 to 20 mM isoleucine; cited from earlier work
[3] = system: middle size fruit-bearing tomato (Tsukutsuku-shi); assay: Ripening and harvestable bunch number of middle size fruit-bearing tomato (Tsukutsuku-shi); assay type: in vivo; conditions: 3 mM Ile + 0.2% Squash
Procedure: For the test, middle size fruit-bearing tomato plants in the second half of their growth (variety, Tsukutsuku-shi) that were cultivated in a greenhouse and bore fruit of the 12th tier were used. Neighboring 12 root clumps of the tomato plants were selected, 6 root clumps of them were used for control group receiving no treatment, and the other 6 root clumps were used for the Ile treatment group. […] The total volume of the solution sprinkled on the plants of 6 root clumps was 600 ml. After the treatment, the change in color of tomatoes was confirmed and harvested from each bunch on 11th, […], and 27th days. When substantially all the fruit colored (ripened), or many fruit were ready to overmature, that is, when the top of the fruit was still green, the fruit were harvested. The numbers of bunches harvested on the 11th day after the treatment were 3 for the no treatment group, and 7 for the Ile treatment group. The numbers of bunches harvested on the 18th day after the treatment were 4 for the no treatment group, and 3 for the Ile treatment group.

[4] = relative to actin, compared to water (Con.)

## CC[C@H](C)[C@H](N)C(=O)O [Ile, L-isoleucine]
Tomato (Momotaro Fight); 10 mM, fruit of water-sprinkled plant was green
  color of fruit obtained from flowers that bloomed on the same day: already turned color to red
Tomato (Momotaro Fight); 107th day after sowing, per four root clumps, water: 0
  number of fruit turning color to orange or red: 4
Tomato (Momotaro Fight); after cultivation for 3 months after sowing, per four root clumps, water: 8
  number of harvested fruits: 16
[1]
  expression of the MYC2 gene: increased
  expression of the PI gene: increased
[1]; [4]
  Expression of the JAR1 gene in leaves: significantly higher
  Expression of the LOX gene in leaves: significantly higher
[2]; 5 mM, 5th day
  anthocyanin content of callus, comparison of amino acids: highest
[2]; Ile of 1 mM or higher, Pro compared with Ile
  change in color of the grape callus (anthocyanin content): promoted
Rice seeds
  production of momilactones A and B: promoted
[3]; 10 labeled bunches, no treatment group: 3
  number of bunches harvested on the 11th day after the treatment: 7
[3]; no treatment group: 3
  number of bunches harvested on the 27th day after the treatment: 1
[3]; no treatment group: 4
  number of bunches harvested on the 18th day after the treatment: 3
[3]; no treatment group: 15 of 85
  number of immature (unripened, green) fruits among the harvested fruit of 10 bunches: 8
[3]; no treatment group: 85
  total harvested fruit of 10 bunches: 86
